Tests used:
[1] = biological target: T1, human ALX receptor (Homo sapiens, UniProt P25090); assay: Intracellular calcium measurements (FLIPR), agonistic activity in HEK293-hALXR-Gα16 cells; format: cell-based; conditions: Fluo-4 calcium FLIPR, normalized to WKYMVm 10 nM
T1 construct: expressed in transfected cells; host or cells: HEK293 (HEK293-hALXR-Gα16)
T1 sequence (P25090 1-351): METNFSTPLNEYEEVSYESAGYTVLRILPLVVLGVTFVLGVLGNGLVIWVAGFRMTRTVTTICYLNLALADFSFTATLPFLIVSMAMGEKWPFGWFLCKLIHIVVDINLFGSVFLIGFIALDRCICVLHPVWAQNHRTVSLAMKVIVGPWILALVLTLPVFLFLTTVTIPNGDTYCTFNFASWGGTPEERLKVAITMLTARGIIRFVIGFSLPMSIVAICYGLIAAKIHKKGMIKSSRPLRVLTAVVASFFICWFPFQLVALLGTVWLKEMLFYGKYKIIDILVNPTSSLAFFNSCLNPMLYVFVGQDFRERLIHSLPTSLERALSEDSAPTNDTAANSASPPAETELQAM
Procedure: (§1) The ALX receptor and FPRL2 agonistic activities of the compounds of formula (I) are determined in accordance with the following experimental method.
(§2) Intracellular Calcium Measurements:
Cells expressing recombinant human ALX receptor and the G-protein Gα16 (HEK293-hALXR-Gα16) were grown to 80% confluency in Growing Medium (GM). Cells were detached from culture dishes with a cell dissociation buffer (Invitrogen, 13151-014), and collected by centrifugation at 1,000 rpm at rt for 5 min in Assay Buffer (AB) (equal parts of Hank's BSS (Gibco, 14065-049) and DMEM without Phenol Red (Gibco, 11880-028)). After 60 min incubation at 37° C. under 5% CO2 in AB supplemented with 1 μM Fluo-4 (AM) (Invitrogen, F14202), and 20 mM HEPES (Gibco, 15630-056), the cells were washed and resuspended in AB. They were then seeded onto 384-well FLIPR assay plates (Greiner, 781091) at 50′000 cells in 70 μl per well and sedimented by centrifugation at 1,000 rpm for 1 min. Stock solutions of test compounds were made up at a concentration of 10 mM in DMSO, and serially diluted in AB to concentrations required for activation dose response curves. WKYMVm (Phoenix Peptides) was used as a reference agonist. FLIPR384 or FLIPR Tetra instruments (Molecular Devices) were operated according to the manufacturer's standard instructions, adding 4 μl of test compound dissolved at 10 mM in DMSO and diluted prior to the experiment in assay buffer to obtain the desired final concentration. Changes in fluorescence were monitored before and after the addition of test compounds at lex=488 nm and lem=540 nm. Emission peak values above base level after compounds addition were exported after base line subtraction. Values were normalized to high-level control (WKYMVm compound, 10 nM final concentration) after subtraction of the base line value (AB addition).

[2] = biological target: T2, human FPRL2 (Homo sapiens, UniProt P25089); assay: Intracellular calcium measurements (FLIPR), agonistic activity in HEK293-hFPRL2-Gα16 cells; format: cell-based; conditions: Fluo-4 calcium FLIPR, normalized to GLY14-Humanin 100 nM
T2 construct: expressed in transfected cells; host or cells: HEK293 (HEK293-hFPRL2-Gα16)
T2 sequence (P25089 1-353): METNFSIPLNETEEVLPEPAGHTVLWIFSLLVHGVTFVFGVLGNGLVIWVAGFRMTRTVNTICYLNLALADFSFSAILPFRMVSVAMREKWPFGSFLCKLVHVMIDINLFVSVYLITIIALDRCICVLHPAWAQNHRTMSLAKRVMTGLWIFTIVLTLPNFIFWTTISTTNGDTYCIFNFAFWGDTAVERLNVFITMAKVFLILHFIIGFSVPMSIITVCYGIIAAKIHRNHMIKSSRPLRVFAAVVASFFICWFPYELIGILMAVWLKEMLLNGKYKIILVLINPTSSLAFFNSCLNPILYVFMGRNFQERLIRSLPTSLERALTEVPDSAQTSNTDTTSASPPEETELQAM
Procedure: as §1, §2
Cells expressing recombinant human FPRL2 and the G-protein Gα16 (HEK293-hFPRL2-Gα16) were grown to 80% confluency in Growing Medium (GM). […] Stock solutions of test compounds were made up at a concentration of 10 mM in DMSO, and serially diluted in AB to concentrations required for activation dose response curves. Gly14-Humanin (Humanin peptide with replacement of Serine by Glycine at position 14, Phoenix Peptides) was used as a reference agonist. FLIPR384 or FLIPR Tetra instruments (Molecular Devices) were operated according to the manufacturer's standard instructions, adding 4 μl of test compound dissolved at 10 mM in DMSO and diluted prior to the experiment in assay buffer to obtain the desired final concentration. Changes in fluorescence were monitored before and after the addition of test compounds at lex=488 nm and lem=540 nm. Emission peak values above base level after compounds addition were exported after base line subtraction. Values were normalized to high-level control (GLY14-Humanin compound, 100 nM final concentration) after subtraction of the base line value (AB addition).

| EC50 [1] [nM] | EC50 [2] [nM] | Structure (SMILES) |
| --- | --- | --- |
| 1.5 | 5250 | O=C(NCC1CCCO1)C1C(C(=O)Nc2ccc(Br)cc2)C2CCC1C21CC1 (mixture of isomers) [Example 104, (5R*)—N^5-(4-Bromophenyl)-(6R*)—N^6-(tetrahydrofuran-2-yl-methyl)-(4S*,7R*)-[4,7-ethylene-spiro[2.4]heptane]-5,6-dicarboxamide] |
| 71 | 613 | CC1CCC(NC(=O)C2C(C(=O)NCCCCN3CCCC3)C3C=CC2C32CC2)CC1 (mixture of isomers) [Example 126, (5R*)—N^5-(4-Methyl-cyclohex-1-yl)-(6R*)—N^6-(4-pyrrolidin-1-yl-butyl)-(4S*,7R*)-[4,7-ethenylene-spiro[2.4]heptane]-5,6-dicarboxamide] |
| 898 | 79 | CC(NC(=O)C1C(C(=O)NCCCCN2CCCC2)C2C=CC1C21CC1)c1ccc(Br)cc1 (mixture of isomers) [Example 132, (5R*)—N^5-(1-(4-Bromophenyl)-ethyl)-(6R*)—N^6-(4-pyrrolidin-1-yl-butyl)-(4S*,7R*)-[4,7-ethenylene-spiro[2.4]heptane]-5,6-dicarboxamide] |
| 87 | 2600 | CC1(C(=O)NCC2C(C(=O)Nc3ccc(Br)cc3)C3C=CC2C32CC2)CC1(Cl)Cl (mixture of isomers) [Example 165, (5R*)—N^5-(4-Bromo-phenyl)-(6R*)-6-{[(2,2-dichloro-1-methyl-cyclopropylcarbonyl)-amino]-methyl}-(4S*,7R*)-[4,7-ethenylene-spiro[2.4]heptane]-5-carboxamide] |
| 0.2 | 2000 | O=C(NC1CCNCC1)[C@H]1[C@H](C(=O)Nc2ccc(Br)cc2)[C@@H]2C=C[C@H]1C21CC1 (racemic) [Example 3, (5R*)—N^5-(4-Bromophenyl)-(6R*)—N^6-(piperidin-4-yl)-(4S*,7R*)-[4,7-ethenylene-spiro[2.4]heptane]-5,6-dicarboxamide] |
| 0.24 | 5310 | CC(C)CNC(=O)[C@H]1[C@H](C(=O)Nc2ccc(Br)cc2)[C@@H]2C=C[C@H]1C21CC1 (racemic) [Example 4, (5R*)—N^5-(4-Bromophenyl)-(6R*)—N^6-(3-isobutyl)-(4S*,7R*)-[4,7-ethenylene-spiro[2.4]heptane]-5,6-dicarboxamide] |
| 0.55 | 413 | NCc1cccc(CNC(=O)[C@H]2[C@H](C(=O)Nc3ccc(Br)cc3)[C@@H]3C=C[C@H]2C32CC2)c1 (racemic) [Example 7, (5R*)—N^5-(4-Bromophenyl)-(6R*)—N^6-((3-aminomethyl-phenyl)-methyl)-(4S*,7R*)-[4,7-ethenylene-spiro[2.4]heptane]-5,6-dicarboxamide] |
| 0.82 | 2600 | O=C(NCC1CCNCC1)[C@H]1[C@H](C(=O)Nc2ccc(Br)cc2)[C@@H]2C=C[C@H]1C21CC1 (racemic) [Example 8, (5R*)—N^5-(4-Bromophenyl)-(6R*)—N^6-(4-piperidinyl-methyl)-(4S*,7R*)-[4,7-ethenylene-spiro[2.4]heptane]-5,6-dicarboxamide] |
| 0.98 | 726 | CC(C)(CN)CNC(=O)[C@H]1[C@H](C(=O)Nc2ccc(Br)cc2)[C@@H]2C=C[C@H]1C21CC1 (racemic) [Example 10, (5R*)—N^5-(4-Bromophenyl)-(6R*)—N^6-(2,2-dimethyl-3-amino-propyl)-(4S*,7R*)-[4,7-ethenylene-spiro[2.4]heptane]-5,6-dicarboxamide] |
| 1 | 329 | CCN(CC)CCCCNC(=O)[C@H]1[C@H](C(=O)Nc2ccc(Br)cc2)[C@@H]2C=C[C@H]1C21CC1 (racemic) [Example 11, (5R*)—N^5-(4-Bromophenyl)-(6R*)—N^6-(4-(N,N-diethyl-amino)-butyl)-(4S*,7R*)-[4,7-ethenylene-spiro[2.4]heptane]-5,6-dicarboxamide] |
| 1.3 | 4400 | O=C(NC1CCCC1)[C@H]1[C@H](C(=O)Nc2ccc(Br)cc2)[C@@H]2C=C[C@H]1C21CC1 (racemic) [Example 15, (5R*)—N^5-(4-Bromophenyl)-(6R*)—N^6-(cyclopentyl)-(4S*,7R*)-[4,7-ethenylene-spiro[2.4]heptane]-5,6-dicarboxamide] |
| 1.4 | 3920 | NCCCNC(=O)[C@H]1[C@H](C(=O)Nc2ccc(Br)cc2)[C@@H]2C=C[C@H]1C21CC1 (racemic) [Example 16, (5R*)—N^5-(4-Bromophenyl)-(6R*)—N^6-(3-amino-propyl)-(4S*,7R*)-[4,7-ethenylene-spiro[2.4]heptane]-5,6-dicarboxamide] |
| 1.8 | 2010 | CCOCCCNC(=O)[C@H]1[C@H](C(=O)Nc2ccc(Br)cc2)[C@@H]2C=C[C@H]1C21CC1 (racemic) [Example 17, (5R*)—N^5-(4-Bromophenyl)-(6R*)—N^6-(3-ethoxy-propyl)-(4S*,7R*)-[4,7-ethenylene-spiro[2.4]heptane]-5,6-dicarboxamide] |
| 2.4 | 2480 | O=C(NCC(F)(F)F)[C@H]1[C@H](C(=O)Nc2ccc(Br)cc2)[C@@H]2C=C[C@H]1C21CC1 (racemic) [Example 19, (5R*)—N^5-(4-Bromophenyl)-(6R*)—N^6-(2,2,2-trifluoro-ethyl)-(4S*,7R*)-[4,7-ethenylene-spiro[2.4]heptane]-5,6-dicarboxamide] |
| 2.7 | 2860 | O=C(NCCF)[C@H]1[C@H](C(=O)Nc2ccc(Br)cc2)[C@@H]2C=C[C@H]1C21CC1 (racemic) [Example 20, (5R*)—N^5-(4-Bromophenyl)-(6R*)—N^6-(2-fluoro-ethyl)-(4S*,7R*)-[4,7-ethenylene-spiro[2.4]heptane]-5,6-dicarboxamide] |
| 2.8 | 1690 | CNCCNC(=O)[C@H]1[C@H](C(=O)Nc2ccc(Br)cc2)[C@@H]2C=C[C@H]1C21CC1 (racemic) [Example 21, (5R*)—N^5-(4-Bromophenyl)-(6R*)—N^6-(2-(N-methyl-amino)-ethyl)-(4S*,7R*)-[4,7-ethenylene-spiro[2.4]heptane]-5,6-dicarboxamide] |
| 3.3 | > 25000 | O=C(N[C@H]1CC[C@H](O)CC1)[C@H]1[C@H](C(=O)Nc2ccc(Br)cc2)[C@@H]2C=C[C@H]1C21CC1 (racemic) [Example 23, (5R*)—N^5-(4-Bromophenyl)-(6R*)—N^6-(4-hydroxy-cyclohexyl)-(4S*,7R*)-[4,7-ethenylene-spiro[2.4]heptane]-5,6-dicarboxamide] |

| Structure (SMILES) | EC50 [1] [nM] | EC50 [2] [nM] |
| --- | --- | --- |
| CC(C)(C)OC(=O)N1CCCC(CCNC(=O)C2C(C(=O)Nc3ccc(Br)cc3)C3C=CC2C32CC2)C1 (mixture of isomers) [Example 99, (5R*)—N^5-(4-Bromophenyl)-(6R*)—N^6-(2-(N-tert-butoxycarbonyl-piperidin-3-yl)-ethyl)-(4S*,7R*)-[4,7-ethenylene-spiro[2.4]heptane]-5,6-dicarboxamide] | 552 | 5490 |

— patent publication US8563714B2, “Bridged spiro [2.4] heptane derivatives as ALX receptor and/or FPRL2 agonists” (Actelion Pharmaceuticals Ltd., priority 2009, dated 2013)
